Reference: US20250352534A1 (Tesaro, Inc., priority 2022, published 2025)
Converted amounts (≈) assume the structure as drawn. Read-outs that look alike come from different tables or passages of the source.

What was measured:
[1] = test system: MGMT-unmethylated newly-diagnosed glioblastoma
Excerpt: Participants will continue receiving maintenance treatment until progression of disease, unacceptable toxicity or death, withdrawal of consent, loss to follow-up, or study termination by sponsor.
• 1. […] Expansion: Examine progression-free survival rate measured from time of surgery to date of recurrence.

[2] = brain penetration in healthy Rhesus macaque monkeys (LC-MS, MALDI IMS); assay type: in vivo; conditions: for Bulk Brain Homogenate, adjusted free concentration: LC-MS; for Terminal CSF / Terminal Plasma, adjusted free concentration: at necropsy; for Kp uu: male, rhesus monkey, brain homogenate / plasma, oral
Method: Pre-dose blood was collected daily and terminal blood, cerebrospinal fluid (CSF), and brain tissue was collected at necropsy. […] Blood, CSF, and bulk homogenates of brain tissue were analyzed by LC-MS bioanalysis.

[3] = test system: PARP activity; conditions: read-out: inhibition of PARP activity EC50; whole cell assay; cited from earlier work
[4] = clinical safety, Phase 0 and expansion phase Arm A; conditions: for tolerability: glioblastoma patients
Method: (§2) Tumor tissue (enhancing and non-enhancing regions), cerebrospinal fluid (CSF), and plasma were collected. […] PARP inhibition was assessed by quantification of PAR induction after 10 Gy ex vivo irradiation in surgical tissue compared to non-irradiated control tissue. A PK ‘trigger’ determined eligibility for the therapeutic phase 2 expansion portion of the study.

[5] = physchem; conditions: aqueous buffer
[6] = test system: cancer cells with mutant BRCA-1 and BRCA-2; conditions: read-out: inhibition of proliferation CC50; cited from earlier work
[7] = in vitro; conditions: rat, brain homogenate
Method: (§1) At least three days prior to the start of the study, six male rats per group (total 24 rats) received surgically implanted femoral vein and carotid artery catheters for infusion of the test molecule and blood sampling, respectively. Doses were filtered prior to administration and the actual dose administered to the animals was quantified. All PK parameters were calculated based on the actual dose administered to each animal. Animals received an intravenous bolus loading dose followed by a constant intravenous infusion to maintain steady state of drug level. At the end of the infusion, animals were euthanized and brain tissues were collected. Tissue homogenates were prepared in PBS (1:4 w/v). LC-MS/MS method was used to quantitate drug concentrations. Tissue homogenate concentrations were corrected for test compound contained in residual plasma in the tissue. The tissue-to-plasma ratio was calculated by dividing corrected tissue concentration by steady-state plasma concentration. […] Data are reported as fraction unbound (Fu).

[8] = brain penetration in mouse brain metastatic tumor model (LC-MS, MALDI IMS); assay type: in vivo, mice; conditions: for MALDI IMS Brain Section Median, adjusted free concentration / MALDI IMS Brain Section Median, total concentration / Bulk Brain Homogenate Avg, adjusted free concentration / Bulk Brain Homogenate Avg, total concentration / concentration at 2 h: 2 hr post final dose; for Bulk Brain Homogenate Avg, adjusted free concentration / Bulk Brain Homogenate Avg, total concentration: LC-MS; for concentration at 2 h: plasma, po QD 5 days, niraparib 35 mg/kg, olaparib 50 mg/kg, read-out: Terminal Plasma Avg, total concentration
Excerpt: Female mice (CrTac:NCr-Foxnlnu; 6 w/o) received 2.5E5 luciferase transfected human breast cancer line (MDA 231-BRM2-831) via intracardiac injection. Mice were imaged twice/week using bioluminescence imaging (BLI) to monitor tumor growth. […] Tissue collected between each imaging plane was homogenized for LC-MS bioanalysis.

[9] = Phase 0 Arm A tumor pharmacokinetics (LC-MS/MS) in newly-diagnosed GBM patients
Method: (§3) The final presurgical dose will be administered 3-5 hours or 8-10 hours before tumor resection. Assignment to time-cohorts will be random. […] In each of the two time-cohorts, tumor PK and PD analyses will be performed at the Ivy Brain Tumor Center.
(§4) For PK analysis, blood, CSF, and brain tumor tissue samples (gadolinium enhancing and non-enhancing) will be collected intraoperatively. Additional blood samples will be obtained on Day 1 pre-dose and on Day 4 (the day of the surgery) at pre-dosing (trough level), 0.5, 1, 2, 4, 6, 9-, 12-, 24-, and 48-hours post-dose.
(§5) Tumor-to-plasma ratios will be calculated. All assays and analyses will be developed, validated, and performed at Ivy Brain Tumor Center.
(§6) Tumor tissue (enhancing and nonenhancing regions), cerebrospinal fluid (CSF), and plasma were collected. […] Evidence of PARP inhibition was assessed by 10 Gy ex vivo irradiation of surgical tissue and quantification of PARylation compared to non-irradiated control tissue.
as §2

[10] = test system: PAR (PARP inhibition); conditions: 17/22 patients
Excerpt: For PD analysis, intraoperatively-collected gadolinium-enhancing tumor tissue will be sectioned into 4 similarly-sized tissue portions. Two tissue specimens will be exposed to 10 Gy of IR using a RAD2000 device and two specimens will be sham irradiated (non-irradiated). One pair of sham control and 10 Gy radiated tissue will be fixed in formalin solution for FFPE slides. The other pair will be snap-frozen for PAR ELISA assay.
A ‘functional’ PD assay examining PAR activity in the setting of ex vivo irradiation will serve as a secondary endpoint in this protocol. In the Ivy Center's CLIA-certified PD Core, FFPE embedded tumor tissue from both ex vivo irradiated and non-irradiated to assess changes in PAR, cleaved caspase 3, γH2AX and Ki67 using immunohistochemistry (IHC) assays. Alternatively, ELISA assays to quantify PAR levels will be performed using frozen lysates from the second pair of control and irradiated samples.
Evidence of PARP inhibition was assessed by 10 Gy ex vivo irradiation of surgical tissue and quantification of PARylation compared to non-irradiated control tissue.
PARP inhibition was assessed by quantification of PAR induction after 10 Gy ex vivo irradiation in surgical tissue compared to non-irradiated control tissue.

[11] = test system: P-gp (P-glycoprotein/Mdr1-a) and BCRP (ABCG2); experiment: in vivo
Method: as §1

[12] = test system: P-gp (Mdr1-a) and BCRP (ABCG2); experiment: in vivo; conditions: male, rat, brain / plasma, intravenous; for Kp: Brain:plasma (Kp) ratio; for Kp uu: Unbound brain:plasma ratio (Kp, uu)
Method: as §1

[13] = test system: P-gp (Mdr1-a); experiment: in vivo; conditions: male, rat, brain / plasma, intravenous, P-gp knock-out rat
Method: as §1

[14] = test system: BCRP (ABCG2); experiment: in vivo; conditions: male, rat, brain / plasma, intravenous, BCRP knock-out rat
Method: as §1

[15] = clinical; conditions: human, oral
Method: as §3, §4, §5, §6, §2

[16] = healthy Rhesus macaque monkeys, five days oral administration
[17] = Unbound brain:plasma ratio (Kp, uu)
[18] = enhancing tumor tissue / plasma
[19] = non-enhancing tumor tissue / plasma

## NC(=O)c1cccc2cn(-c3ccc([C@@H]4CCCNC4)cc3)nc12 [niraparib, (3S)-3-[4-{7-(aminocarbonyl)-2H-indazol-2-yl}phenyl]piperidine]
[1]; MGMT-unmethylated PK-responders, niraparib in addition to radiotherapy
  outcome of the 6 patients with ≥6 months follow-up: four are in remission and two had a recurrence of tumor
[1]; niraparib with concurrent RT then maintenance, 11 patients, median follow-up 8.1 months
  PFS6: 64%
[2]; Monkey 1
  MALDI IMS Brain Section Average, adjusted free concentration: (10) ng/g
  Bulk Brain Homogenate, adjusted free concentration: (14) ng/g
  Terminal CSF: 9 ng/mL
  Terminal Plasma, adjusted free concentration: (31) ng/mL
[2]; Monkey 1, Day 1, po daily 5 days, niraparib 6 mg/kg, olaparib 10 mg/kg
  Pre-Dose Plasma, total concentration: BQL
[2]; Monkey 1, Day 2
  Pre-Dose Plasma, adjusted free concentration: 10 ng/mL
  Pre-Dose Plasma, total concentration: 28 ng/mL
[2]; Monkey 1, Day 3
  Pre-Dose Plasma, adjusted free concentration: 18 ng/mL
  Pre-Dose Plasma, total concentration: 49 ng/mL
[2]; Monkey 1, Day 4
  Pre-Dose Plasma, adjusted free concentration: 22 ng/mL
  Pre-Dose Plasma, total concentration: 59 ng/mL
[2]; Monkey 1, Day 5
  Pre-Dose Plasma, adjusted free concentration: (26) ng/mL
  Pre-Dose Plasma, total concentration: 72 ng/mL
[2]; Monkey 1, at necropsy after 5 daily oral doses
  Terminal Plasma, total concentration: 84 ng/mL
[2]; Monkey 2
  MALDI IMS Brain Section Average, adjusted free concentration: (25) ng/g
  Bulk Brain Homogenate, adjusted free concentration: (29) ng/g
  Terminal CSF: 25 ng/mL
  Terminal Plasma, adjusted free concentration: (160) ng/mL
[2]; Monkey 2, Day 1, po daily 5 days, niraparib 6 mg/kg, olaparib 10 mg/kg
  Pre-Dose Plasma, total concentration: BQL
[2]; Monkey 2, Day 2
  Pre-Dose Plasma, adjusted free concentration: 21 ng/mL
  Pre-Dose Plasma, total concentration: 58 ng/mL
[2]; Monkey 2, Day 3
  Pre-Dose Plasma, adjusted free concentration: 32 ng/mL
  Pre-Dose Plasma, total concentration: 87 ng/mL
[2]; Monkey 2, Day 4
  Pre-Dose Plasma, adjusted free concentration: 27 ng/mL
  Pre-Dose Plasma, total concentration: 74 ng/mL
[2]; Monkey 2, Day 5
  Pre-Dose Plasma, adjusted free concentration: (24) ng/mL
  Pre-Dose Plasma, total concentration: 66 ng/mL
[2]; [16]
  Kp,uu,brain, times higher for niraparib compared to olaparib: 15 ×
  detection and distribution in coronal brain sections by MALDI IMS: consistent concentrations distributed throughout the brain parenchyma
[2]; Monkey 2, from bulk brain homogenate and terminal plasma free concentrations, read-out: Kp, uu Brain/Plasma
  Kp uu: 0.16
[2]; mean of Monkey 1 and 2, read-out: Mean Kp, uu Brain/Plasma
  Kp uu: 0.3
[3]
  EC50: 4 nM
[4]; 6 initial patients enrolled in phase 2, niraparib with concurrent RT
  patients with thrombocytopenia related to niraparib: Five of the 6
[4]; Phase 0, twelve patients, 300 mg QD 4 days
  patients with Grade 3 treatment-related adverse event (ALT and AST elevation): one patient
[4]; both phases
  serious AEs after starting dose lowered to 200 mg: no serious AEs were observed thereafter
[4]; expansion phase, two patients enrolled
  patients with treatment-related thrombocytopenia: two patients
[4]
  tolerability: well-tolerated, with low rates of grade 3+ toxicity
[4]; listed as Niraparib
  tolerability: generally well-tolerated
[4]; of the 5 thrombocytopenia cases in phase 2
  thrombocytopenia cases deemed serious and life-threatening: 3/5
[5]
  solubility: 700 to 1100 µg/mL (≈ 2180 to 3430 µM)
[6]
  CC50: 10 to 100 nM
[7]
  fraction unbound: 0.04
[8]; BM mice
  estimated mean Kp,uu,brain, times higher for niraparib compared to olaparib: 5.6 ×
  MALDI IMS Brain Section Median, adjusted free concentration: 80
  MALDI IMS Brain Section Median, total concentration: 473
  Bulk Brain Homogenate Avg, adjusted free concentration: 91 ng/g
  Bulk Brain Homogenate Avg, total concentration: 543 ng/g
[8]; Control mice
  MALDI IMS Brain Section Median, adjusted free concentration: 89
  MALDI IMS Brain Section Median, total concentration: 532
  Bulk Brain Homogenate Avg, adjusted free concentration: 111 ng/g
  Bulk Brain Homogenate Avg, total concentration: 658 ng/g
[8]; control mice
  estimated mean Kp,uu,brain, times higher for niraparib compared to olaparib: 3.0 ×
[8]; female, CrTac:NCr-Foxnlnu, mouse, oral, BM mice, from bulk brain homogenate and terminal plasma free concentrations
  Kp uu at 2 h post final dose: 0.18
[8]; female, CrTac:NCr-Foxnlnu, mouse, oral, Control mice, from bulk brain homogenate and terminal plasma free concentrations
  Kp uu at 2 h: 0.18
[8]; female, CrTac:NCr-Foxnlnu, mouse, oral, BM (brain metastases) mice
  concentration at 2 h: 2540 ng/mL
[8]; female, CrTac:NCr-Foxnlnu, mouse, oral, Control mice
  concentration at 2 h: 3100 ng/mL
[8]; mice administered niraparib
  distribution in coronal brain sections by MALDI IMS: consistent concentrations distributed throughout the brain parenchyma with locally higher concentrations detected from tumor regions
[9]; 200 mg, 3-5 hr cohort 1 (n=6)
  mean unbound concentration in Gd-nonenhancing tumor region: 250.8 nM
[9]; 300 mg QD 4 days, 3-5 hr cohort (n=8), interim results
  mean unbound concentration in Gd-nonenhancing tumor region: 340.9 nM
[9]; 300 mg QD 4 days, 8-12 hr cohort (n=3)
  mean unbound concentration in Gd-nonenhancing tumor region: 331.9 nM
[9]; 300 mg, 3-5 hr cohort 1 (n=20)
  mean unbound concentration in Gd-nonenhancing tumor region: 366.2 nM
[9]; 300 or 200 mg QD 4 days, 29 patients, further interim results
  mean unbound concentration in non-enhancing regions: 258.2 nM
[10]
  patients with suppression of PAR levels after ex vivo radiation: 79%
[11]; BCRP knockout rats vs control
  increase of brain tissue concentrations: < 2 fold
[11]; Mdr1-a (P-gp) knockout rats vs control, iv bolus plus infusion, steady state
  increase of brain tissue concentrations: 9 fold
[11]; Pgp/BCRP double knockout rats vs control
  increase of brain tissue concentrations: 14 fold
[12]; P-gp/BCRP double knock-out rat
  Kp: 6.3
  Kp uu: 1.5
[12]; control rat
  Kp: 0.47
  Kp uu: 0.1
[13]; Brain:plasma (Kp) ratio
  Kp: 3.7
[13]; [17]
  Kp uu: 0.87
[14]; Brain:plasma (Kp) ratio
  Kp: 0.64
[14]; [17]
  Kp uu: 0.15
[15]; [18]
  Kp: 7.89
  Kp uu: 1.8
[15]; [19]
  Kp: 4.27
  Kp uu: 0.8
